The record followed here is patent US10463669B2, “Composition for treating or preventing liver cancer” (Seoul National University R&DB Foundation, priority 2016, dated 2019).

Common to all, as to assay type: cell-based, human
For experiment [1], the system named is telomere length in HCC cell lines (Huh7 and Hep3B). Kind of experiment: Telomere length (Southern blot, immunoFISH, Flow FISH, quantitative PCR). How it is done: Volume of the hybridization buffer was adjusted to 100 μl per 10^5 cells. Next, each sample was cultured for 10 minutes in a water bath at 85° C. […] Total 15,000 to 20,000 nuclei were analyzed for the each separate culture. Telomere fluorescence intensity of the all nuclei at […] phase of the cell cycle was measured by using BD FACS Calibur flow cytometer (Becton Dickinson, Franklin Lakes, N.J., USA) in which CELLQUEST software is used. The established ImmunoFISH protocol (Plentz R R, et al., Hepatology. 2007; 45: 968-76) was used with slight modifications. The paraffin-embedded section was subjected to de-paraffinization using xylene, and then rehydrated using ethanol gradient. Antigen retrieval was carried out by boiling in 100 mmol/L sodium citrate (pH 6.0) for 10 minutes in a microwave. After permeation of proteinase K (15 μg/mL in PBS [pH 7.4]) for 20 minutes at 37° C., 8-oxo-dG-specific antibody (1:100, Abcam, Cambridge, Mass., USA; ab62623) was subjected to 1% BSA dilution in PBS 0.1% Triton X-100 and cultured overnight at room temperature. After washing, the slide was treated with Alexa 647 secondary antibody for 1 hour. […] After denaturation for 6 minutes at 90° C., the sample was hybridized for 2 hours at dark place. […] After washing, the slide was rinsed with PBS containing DAPI, and then sealed with a DAPI sealing agent (mounting medium) (Vector Laboratories, Burlingame, Calif., USA). Simultaneously, the inventors of the present invention carried out centromere staining as an internal control for telomere staining and 8-oxo-dG staining. […] For quantification of the telomere fluorescence intensity, centromere fluorescence intensity, and 8-oxo-dG fluorescence intensity, the same exposure time was employed. The telomere fluorescence level and 8-oxo-dG fluorescence level of tumor tissues were calculated by division of the fluorescence level in non-tumor tissues corresponding to 5 random fields. The image analysis was carried out by using Image-Pro plus 6.0 software (Media Cybernetics, Inc., Rockville, Md., USA). Telomere length was determined by using the non-radioactive chemical fluorescence TeloTAGGG telomere length assay (Roche; Cat. No. 12 209 136 001) according to the manual. Genomic DNA was separated from HCC cells using GeneJET Genomic DNA Purification Kit (Thermo Scientific; #K0721), and then 4 μg of the genomic DNA was digested for 16 hours at 37° C. with 20 units of […] digested DNA was subjected to 0.8% agarose gel electrophoresis, and then transferred to a positively charged nylon membrane using capillary transfer. The blotted DNA was hybridized for 16 hours at 42° C. with a digoxigenin (DIG)-labeled probe that is specific to the telomere repeat. After that, it was cultured for 30 minutes at room temperature with DIG-specific antibody conjugated to an alkaline phosphatase Based on quantitative PCR analysis using the genomic DNA extracted from cells, relative telomere repeat copy number (T) and single copy number (S) were determined, and the calculation was made like previous method in which T/S ratio is continuously modified (Cawthon R M. Telomere length measurement by a novel monochrome multiplex quantitative PCR method. Nucleic Acids Res. 2009; 37: e21).

Experiment [2] concerns TERT expression in THLE-3 cells. Kind of experiment: TERT expression, quantitative real time-PCR and immunoblot. The method, then: Medium was exchanged every day, and the aforementioned cells were cultured for 4 days in 300 μmol/L hydrogen peroxide (H2O2) (Sigma Aldrich; H1009). In several experiments, the cells were treated for 1 hour with 5 mmol/L N-acetylcysteine (NAC) (Sigma Aldrich; A7250), 25 μmol/L idelalisib (LC Laboratoties, Woburn, Mass., USA; I-7447), 25 μmol/L perifosine (LC Laboratoties, Woburn, Mass., USA; P-6522), or 30 μmol/L GSK3β inhibitor (GSK3β inhibitor XI) (Santa Cruz; sc-204770) (31) before adding H2O2. Furthermore, sterilized distilled water (pH 7.0) was used as a negative control (i.e., mock treatment).
PCR was carried out by using TOPrealm qPCR 2×PreMIX (SYBR Green with high ROX) (Enzynomics, Daejeon, Korea; RT501M) and ABI Prism 7300 thermal cycler (Applied Biosystems, Foster City, Calif., USA). […] To examine the primer specificity, a dissociation step was additionally included.
Total 2×10^5 cells were boiled for 5 minutes in 2×SDS sample buffer (100 mmol/L TrisHCl [pH 6.8], 4% SDS, 0.2% bromophenol blue, 20% glycerol, and 200 mmol/L β-mercaptoethanol), and then subjected to SDS-PAGE and Western blotting. To detect the TERT, the cells were cultured in 2×SDS sample buffer for 15 minutes at 55° C. TERT-specific (1:300, Rockland Immunochemicals, Gilbertsville, Pa., USA; 600-401-252), AKT-specific (1:1000, Cell Signaling Technology; #9272), phospho-AKT-specific (1:2000, Cell Signaling Technology; #4060), GAPDH-specific (1:2000, Santa Cruz Biotechnology; sc-47724), or β-actin-specific (1:2000, Sigma-Aldrich, St. Louis, Mo., USA; A5441) antibody was diluted in 5% skim milk or bovine serum albumin with TBS-Tween 20, cultured overnight at 4° C., washed, and cultured with HRP-conjugated secondary antibody (1:1000, Abcam; ab131368, or ab131366). By using FUSION-SOLO imager (Vilber Lourmat, Marne La Vallee, France), a chemical fluorescence image was obtained.

In experiment [3] the test system is telomerase activity in THLE-3 cells. Put plainly: Telomerase activity, TRAP assay. The note with it: 150 μmol/L H2O2-treated THLE-3 cells. How it is done: (§1) To have quantitative determination of the telomerase activity, TRAP assay was carried out by using TRAPEZE® RT Telomerase Detection Kit (Millipore, Darmstadt, Germany; […]). According to the manual, the whole protein extract (100 ng) was used for each reaction.

The subject of experiment [4] is telomerase activity in HCC cell lines (Huh7 and Hep3B). Kind of experiment: Telomerase activity, TRAP assay. How it is done:
as §1

Turning to `OO` [H2O2, hydrogen peroxide], the “telomere length increased by” value in experiment [1] (HCC cells treated with 300 μmol/L H2O2, compared to control HCC cells not exposed to H2O2) is recorded as 25%-30%. Moreover, the TERT expression level entry in experiment [2] (THLE-3 cells after H2O2 treatment) is listed as “no change”.
For the molecule `CC[C@H](Nc1ncnc2nc[nH]c12)c1nc2cccc(F)c2c(=O)n1-c1ccccc1` [idelalisib, 5-fluoro-3-phenyl-2-[(1S)-1-(7H-purin-6-ylamino)propyl]-4(3H)-quinazolinone], in experiment [1] (300 μmol/L H2O2-treated HCC cells plus idelalisib, compared to HCC cells treated with H2O2 only), the “telomere length reduced by” value is reported as 40-45%. In addition, the “ROS-mediated increase in telomere length” value in experiment [1] (H2O2-treated cells) is on record as “almost completely inhibited”. In experiment [1] (HCC cells, no H2O2), the telomere length result was “reduced”. In addition, in experiment [2] (THLE-3 cells), the TERT expression result is on record as “not reduced”. In addition, the telomerase activity result in experiment [3] is recorded as “not”; in experiment [4] (300 μmol/L H2O2-treated HCC cell lines), “reduced”. Also, in experiment [4] (H2O2-treated cells), the “ROS-mediated increase in telomerase activity” value was “almost completely inhibited”.
